Data on 18 compounds can be found in US11622970B2, “BCL-2 inhibitors and their use as pharmaceuticals” (PRELUDE THERAPEUTICS INCORPORATED, priority 2020, dated 2023).

Molecules are shown by their SMILES.

The inhibition is how much of the control response was suppressed. A word on the IC50: it is the concentration that inhibits the measured activity by half.

The first assay deals with BCL-2 recombinant protein (Homo sapiens, UniProt P10415). Description: Cell free Bcl-2:Bak affinity assay (Bcl-2 Bak), HTRF competition of FAM-Bak peptide. It counts as binding. To be noted: 1 μM compound, 4 nM BCL-2 recombinant protein, 100 nM FAM-Bak, read-out: potency (% inhibition at 1 μM). On the procedure: Biological Assays: Cell Free Bcl-2:Bak Affinity Assay (Bcl-2 Bak)
Sequence of BCL-2 recombinant protein (P10415 whole entry): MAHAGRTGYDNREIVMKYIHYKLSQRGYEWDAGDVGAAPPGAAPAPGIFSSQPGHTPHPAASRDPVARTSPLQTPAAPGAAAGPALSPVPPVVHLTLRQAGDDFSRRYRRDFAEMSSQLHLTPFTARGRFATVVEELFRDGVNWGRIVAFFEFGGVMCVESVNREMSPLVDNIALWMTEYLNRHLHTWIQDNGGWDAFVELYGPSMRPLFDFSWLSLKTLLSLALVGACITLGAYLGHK
The assay is based on the competition of fluorescently labeled peptide binding to BCL-2 and the binding is monitored by HTRF signals between anti-GST-Tb and FAM-peptide using GST-Tag BCL proteins. Testing compounds were dissolved in DMSO at 10 mM and tested in 10-concentration IC50 mode. The compounds of interest in DMSO were added in 3-fold serial dilution to each well containing 4 nM of BCL-2 recombinant protein, 20 mM K Phosphate, pH 7.5, 50 mM NaCl, 1 mM EDTA, 0.005% Triton X-100, by using acoustic technology (Labcyte echo 550), After 10 minutes incubation at room temperature, 100 nM of FAM-Bak was added and incubated for another 10 minutes before addition of Anti-GST-Tb. The plate was then sealed and further incubated at room temperature for 60 minutes in the dark before reading. Percentage of inhibition was calculated by % inhibition=100×(FDMSO−F)/(FDMSO−FPC), in which FDMSO is DMSO control and FPC is a positive control. IC50 values were determined from dose-response curve by fitting the percent inhibition against compound concentration using GraphPad Prism software.
For orientation: Time-resolved FRET reads energy transfer from a long-lived donor to a nearby acceptor.
As to `CC1(C)CCC(CN2CCN(c3ccc(S(=O)(=O)NC(=O)c4cc(-c5ccc(F)cc5)no4)cc3)CC2)=C(c2ccc(Cl)cc2)C1` [Example 25, N-([4-[4-[[2-(4-chlorophenyl)-4,4-dimethylcyclohexen-1-yl]methyl]piperazin-1-yl]phenyl]sulfonyl)-3-(4-fluorophenyl)isoxazole-5-carboxamide], the inhibition at 1 µM is 50 to 90%.

Turning to `Cc1ccc(CC(=O)NS(=O)(=O)c2ccc(N3CCN(CC4=C(c5ccc(Cl)cc5)CC(C)(C)CC4)CC3)cc2)cn1` [Example 26, N-([4-[4-[[2-(4-chlorophenyl)-4,4-dimethylcyclohexen-1-yl]methyl]piperazin-1-yl]phenyl]sulfonyl)-2-(6-methylpyridin-3-yl)acetamide], the inhibition at 1 µM is < 50%.

For `CC1(C)CCC(CN2CCN(c3ccc(S(=O)(=O)NC(=O)c4ccc5ccsc5n4)cc3)CC2)=C(c2ccc(Cl)cc2)C1` [Example 27, N-([4-[4-[[2-(4-chlorophenyl)-4,4-dimethylcyclohexen-1-yl]methyl]piperazin-1-yl]phenyl]sulfonyl)thieno[2,3-b]pyridine-6-carboxamide], the inhibition at 1 µM was in the range of 50 to 90%.

For the compound `CC1(C)CCC(CN2CCN(c3ccc(S(=O)(=O)NC(=O)C4CC=CCC4)cc3)CC2)=C(c2ccc(Cl)cc2)C1` (stereo not drawn) [Example 28, N-([4-[4-[[2-(4-chlorophenyl)-4,4-dimethylcyclohexen-1-yl]methyl]piperazin-1-yl]phenyl]sulfonyl)cyclohex-3-ene-1-carboxamide], the inhibition at 1 µM is < 50%.

Consider `CC1(C)CCC(CN2CCN(c3ccc(S(=O)(=O)NC(=O)C4(c5ccc([N+](=O)[O-])cc5)CC4)cc3)CC2)=C(c2ccc(Cl)cc2)C1` [Example 29, N-([4-[4-[[2-(4-chlorophenyl)-4,4-dimethylcyclohexen-1-yl]methyl]piperazin-1-yl]phenyl]sulfonyl)-1-(4-nitrophenyl)cyclopropane-1-carboxamide], for which the inhibition at 1 µM was < 50%.

As for `CC1(C)CCC(CN2CCN(c3ccc(S(=O)(=O)NC(=O)Cc4ccccc4F)cc3)CC2)=C(c2ccc(Cl)cc2)C1` [Example 30, N-([4-[4-[[2-(4-chlorophenyl)-4,4-dimethylcyclohexen-1-yl]methyl]piperazin-1-yl]phenyl]sulfonyl)-2-(2-fluorophenyl)acetamide], the inhibition at 1 µM lay within 50 to 90%.

Regarding `CC1(C)CCC(CN2CCN(c3ccc(S(=O)(=O)NC(=O)CCc4cccnc4)cc3)CC2)=C(c2ccc(Cl)cc2)C1` [Example 31, N-([4-[4-[[2-(4-chlorophenyl)-4,4-dimethylcyclohexen-1-yl]methyl]piperazin-1-yl]phenyl]sulfonyl)-3-(pyridin-3-yl)propanamide], the inhibition at 1 µM is < 50%.

With `Cc1cccc(COc2cccc(C(=O)NS(=O)(=O)c3ccc(N4CCN(CC5=C(c6ccc(Cl)cc6)CC(C)(C)CC5)CC4)cc3)c2)c1` [Example 34, N-([4-[4-[[2-(4-chlorophenyl)-4,4-dimethylcyclohexen-1-yl]methyl]piperazin-1-yl]phenyl]sulfonyl)-3-((3-methylbenzyl)oxy)benzamide], the inhibition at 1 µM was 50 to 90%.

`CC1(C)CCC(CN2CCN(c3ccc(S(=O)(=O)NC(=O)c4ccc(COc5cc(Cl)ccc5Cl)cc4)cc3)CC2)=C(c2ccc(Cl)cc2)C1` [Example 35, N-([4-[4-[[2-(4-chlorophenyl)-4,4-dimethylcyclohexen-1-yl]methyl]piperazin-1-yl]phenyl]sulfonyl)-4-((2,5-dichlorophenoxy)methyl)benzamide]: the inhibition at 1 µM is > 90%.

Turning to `CC1(C)CCC(CN2CCN(c3ccc(S(=O)(=O)NC(=O)c4ccc(OCc5ccccc5)c([N+](=O)[O-])c4)cc3)CC2)=C(c2ccc(Cl)cc2)C1` [Example 36, 4-(benzyloxy)-N-([4-[4-[[2-(4-chlorophenyl)-4,4-dimethylcyclohexen-1-yl]methyl]piperazin-1-yl]phenyl]sulfonyl)-3-nitrobenzamide], the inhibition at 1 µM was 50 to 90%.

As to `CC1(C)CCC(CN2CCN(c3ccc(S(=O)(=O)NC(=O)c4ccc([N+](=O)[O-])c(OCc5ccccc5)c4)cc3)CC2)=C(c2ccc(Cl)cc2)C1` [Example 40, 3-(benzyloxy)-N-([4-[4-[[2-(4-chlorophenyl)-4,4-dimethylcyclohexen-1-yl]methyl]piperazin-1-yl]phenyl]sulfonyl)-4-nitrobenzamide], the inhibition at 1 µM was 50 to 90%.

For the compound `CC1(C)CCC(CN2CCN(c3ccc(S(=O)(=O)NC(=O)c4cc([N+](=O)[O-])c(NCC5CCOCC5)cc4Cl)cc3)CC2)=C(c2ccc(Cl)cc2)C1` [Example 41, 2-Chloro-N-[4-[4-[[2-(4-chlorophenyl)-4,4-dimethylcyclohexen-1-yl]methyl]piperazin-1-yl]phenyl]sulfonyl-5-nitro-4-(tetrahydropyran-4-ylmethylamino)benzamide], the inhibition at 1 µM was in the range of 50 to 90%.

`Cc1c(Cl)c(C(=O)NS(=O)(=O)c2ccc(N3CCN(CC4=C(c5ccc(Cl)cc5)CC(C)(C)CC4)CC3)cc2)cc([N+](=O)[O-])c1NCC1CCOCC1` [Example 42, 2-Chloro-N-([4-[4-[[2-(4-chlorophenyl)-4,4-dimethylcyclohexen-1-yl]methyl]piperazin-1-yl]phenyl]sulfonyl)-3-methyl-5-nitro-4-(tetrahydropyran-4-ylmethylamino)benzamide]: the inhibition at 1 µM was > 90%.

Still in this assay, the particulars now being: 10-concentration IC50 mode, 4 nM BCL-2 recombinant protein, 100 nM FAM-Bak, read-out: potency (IC50).
Consider `CC1(C)CCC(CN2CCN(c3ccc(S(=O)(=O)NC(=O)c4cccc([N+](=O)[O-])c4)cc3)CC2)=C(c2ccc(Cl)cc2)C1` [Example 32, N-([4-[4-[[2-(4-chlorophenyl)-4,4-dimethylcyclohexen-1-yl]methyl]piperazin-1-yl]phenyl]sulfonyl)-3-nitrobenzamide], for which the half-inhibitory concentration (IC50) was > 1000 nM.

Take `CC1(C)CCC(CN2CCN(c3ccc(S(=O)(=O)NC(=O)c4ccc(F)c(Br)n4)cc3)CC2)=C(c2ccc(Cl)cc2)C1` [Example 33, 6-bromo-N-([4-[4-[[2-(4-chlorophenyl)-4,4-dimethylcyclohexen-1-yl]methyl]piperazin-1-yl]phenyl]sulfonyl)-5-fluoropyridine-2-carboxamide]: the IC50 lay within 10 to 100 nM.

For `CC1(C)CCC(CN2CCN(c3ccc(S(=O)(=O)NC(=O)c4ccc(F)c(COc5ccc(Cl)cc5)c4)cc3)CC2)=C(c2ccc(Cl)cc2)C1` [Example 37, N-([4-[4-[[2-(4-chlorophenyl)-4,4-dimethylcyclohexen-1-yl]methyl]piperazin-1-yl]phenyl]sulfonyl)-3-((4-chlorophenoxy)methyl)-4-fluorobenzamide], the IC50 was 10 to 100 nM.

As for `CC1(C)CCC(CN2CCN(c3ccc(S(=O)(=O)NC(=O)c4ccc([N+](=O)[O-])c(COc5ccc(Cl)cc5)c4)cc3)CC2)=C(c2ccc(Cl)cc2)C1` [Example 38, N-([4-[4-[[2-(4-chlorophenyl)-4,4-dimethylcyclohexen-1-yl]methyl]piperazin-1-yl]phenyl]sulfonyl)-3-((4-chlorophenoxy)methyl)-4-nitrobenzamide], the IC50 was in the range of 10 to 100 nM.

Regarding `CC1(C)CCC(CN2CCN(c3ccc(S(=O)(=O)NC(=O)c4ccc(COc5ccc(Cl)cc5)c([N+](=O)[O-])c4)cc3)CC2)=C(c2ccc(Cl)cc2)C1` [Example 39, N-([4-[4-[[2-(4-chlorophenyl)-4,4-dimethylcyclohexen-1-yl]methyl]piperazin-1-yl]phenyl]sulfonyl)-4-((4-chlorophenoxy)methyl)-3-nitrobenzamide], the IC50 was 10 to 100 nM.
